This note sets out measurements from patent publication US20110021531A1, “OXAZOLE DERIVATIVES USEFUL AS INHIBITORS OF FAAH” (priority 2009, published 2011).

Experiment [1] has as its target T1, human FAAH (Fatty Acid Amide Hydrolase) (Homo sapiens, UniProt O00519).
T1 construct: The full length FAAH was subcloned into the mammalian expression vector, pcDEF.neo
T1 sequence (O00519 1-579): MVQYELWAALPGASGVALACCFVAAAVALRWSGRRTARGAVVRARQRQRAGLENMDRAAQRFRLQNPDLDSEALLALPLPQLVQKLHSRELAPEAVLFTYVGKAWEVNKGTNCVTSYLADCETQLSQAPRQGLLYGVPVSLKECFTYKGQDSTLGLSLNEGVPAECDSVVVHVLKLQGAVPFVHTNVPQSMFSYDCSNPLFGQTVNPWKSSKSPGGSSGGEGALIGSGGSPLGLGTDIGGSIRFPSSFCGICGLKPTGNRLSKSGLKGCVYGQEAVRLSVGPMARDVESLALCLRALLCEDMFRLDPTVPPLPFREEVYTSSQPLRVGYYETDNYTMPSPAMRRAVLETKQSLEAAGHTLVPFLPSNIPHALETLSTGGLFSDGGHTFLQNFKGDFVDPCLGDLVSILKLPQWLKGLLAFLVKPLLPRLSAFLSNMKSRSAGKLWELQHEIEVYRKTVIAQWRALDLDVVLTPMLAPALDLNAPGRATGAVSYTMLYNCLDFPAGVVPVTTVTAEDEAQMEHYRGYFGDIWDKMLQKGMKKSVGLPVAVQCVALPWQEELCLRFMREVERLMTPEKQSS
Briefly: FAAH enzyme assay on lysate of CHO cells expressing human FAAH. The class given is biochemical. An excerpt: (§1) To assist in assay development stable cell lines for human, murine and rat full length FAAH were developed. Human FAAH cDNA (Accession No: NM_001441.1) was purchased from Origene (Rockville, Md.). The full length FAAH was subcloned into the mammalian expression vector, pcDEF.neo, using XbaI and EcoRI restriction sites and used for stable cell line generation.
CHO cells expressing FAAH were used to prepare either crude cell lysate or microsome fractions. To harvest cells, tissue culture media was decanted, the monolayer washed three times with Ca^++Mg^++ free PBS and cells recovered after […] in enzyme free dissociation media (Millipore Corp, Billerica, Mass.). Cells were collected by centrifuging at 2000 rpm for 15 min. and the cell pellet re-suspended with 50 mM HEPES (pH 7.4) containing 1 mM EDTA and the protease inhibitors aprotinin (1 mg/ml) and leupeptin (100 μM). The suspension was sonicated at 4° C. and the cell lysate recovered after centrifuging at 12,000×g (14,600 rpm, SS34 rotor) for 20 min at 4° C. to form a crude pellet of cell debris, nuclei, peroxisomes, lysosomes, and mitochondria; the supernatant or cell lysate was used for FAAH enzyme assay. In some cases, microsomes fractions enriched in FAAH were prepared by centrifuging the cell lysate further at 27,000 rpm (100,000×g) in SW28 rotor for 50 minutes at 4° C. The pellet containing FAAH-enriched microsomes was re-suspend in 50 mM HEPES, (pH 7.4) 1 mM EDTA, and any remaining DNA sheared by passage of material through a 23 gauge needle and aliquots of enzyme were store at −80° C. prior to use.
(§2) (American Radiolabeled Chemicals; 1 mCi/ml) with FAAH (Life Sciences (1995), 56, 1999-2005 and Journal of Pharmacology and Experimented Therapeutics (1997), 283, 729-734), Analytical. Biochemistry (2003), 318, 270-5. In addition, routine assays were performed monitoring hydrolysis of arachidonyl-7-amino-4-methylcoumarin amide (AAMCA) by following increase in fluorescence upon release of 7-amino 4-methyl coumarin (λEX=355 nm, (λEM=460 nm). Analytical. Biochemistry (2005). 343, 143-51
(§3) Assays are performed on either cell lysate or microsome fractions prepared as described or in whole cell format employing either the fluorescent substrate AAMCA (Cayman chemical, Ann Arbor, Mich.,) or ^3H-anandmaide ([ETHANOLAMINE-1-3H]American Radiolabeled Chemicals; 1 mCi/ml). The cell lysate or microsome assay is performed in Costar black wall, clear bottom plates by adding FAAH_CF10 (whole cell, cell lysate or microsome) in assay buffer (50 mM Phosphate, pH 8.0, 1 mM EDTA, 200 mM KCl, 0.2% glycerol, 0.1% fatty acid free BSA) to each well, followed by either DMSO or compound and allowed to incubate at 22-25° C. for fifteen minutes. AAMCA substrate was used to achieve a final concentration of 1 μM and reaction allowed to proceed at room temperature for 1-3 hours. Fluorescent release as a measure of FAAH activity was monitored by reading the plate in a CytoFluor Multiplate Reader (Ex: […]). Whole cell assay is conducted with cells harvested after rinsing tissue culture flasks three times with Ca^++Mg^++ free PBS, incubating for 10 min in Enzyme free dissociation media and centrifuging for 5 minutes at 1,000 rpm in table top centrifuge. Cells are resuspended in assay buffer at desired cell number in (4×10^4 cells/assay in 96-well format; 1×10^4 cells/assay in 384-well format) and assayed as described.
Alternatively, assays are performed using anandamide [ethanolamine 1-^3H] (specific activity of 10 Ci/mmol) diluted with cold anandamide to achieve a final assay concentration of 1 μM anandamide (˜50,000 cpm). Enzyme (CHO cell lysate, brain or liver homogenate) is incubated in assay buffer (50 mM Phosphate, pH 8.0, 1 mM EDTA, 200 mM KCl, 0.2% glycerol, 0.1% fatty acid free BSA) with inhibitor at 25° C. for 30 minutes. The reaction was terminated by addition of 2 volumes of chloroform:methanol (1:1) and mixed by vortexing. […]

The target in experiment [2] is T1, human FAAH (Fatty Acid Amide Hydrolase). Briefly: FAAH whole cell assay, CHO cells expressing human FAAH. The class given is cell-based.
From the text: as §1
(§4) Murine (accession number NM_010173) and Rat FAAH (accession number NM_024132) was amplified by reverse transcriptase polymerase chain reaction (RT-PCR) from brain cDNA (BD Biosciences, San Jose, Calif.) using primers 1 and 2 or primers 1 and 3 respectively (see Table). The resulting PCR product was ligated into pCR4 TOPO and DNA sequence confirmed. The full length murine FAAH was subcloned into the mammalian expression vector, pcDEFneo using either EcoRI (murine) or KpnI and EcoRI (rat) restriction sites. Chinese hamster ovary cells (CHO) were transfected following manufacturers protocol (AMAXA). Forty eight hours post transfection, cells were trypsinized and transferred to 96 well plates in Iscove's DMEM media supplemented with 2 mM Glutamine, 10% fetal calf serum, 1 mg/ml geneticin and HT Supplement (0.1 mM sodium hypoxanthine, 0.016 mM thymidine) in order to isolate single clones. Following selection in geneticin, individual clones were selected and FAAH activity was assessed using a whole cell fluorescent anandamide assay, modified from Ramarao et al (2005). Following removal of tissue culture media cells were dislodged following addition of Cellstripper (Mediatech, Inc. Manassas, Va.) and transferred to 96 well black clear bottom assay plate, centrifuged at 1,000 rpm for 3 mins and media removed and replaced with assay buffer (50 mM Iris pH8.0, 1 mM EDTA, 0.1% fatty acid free BSA). The reaction was initiated by addition of fluorescent substrate, AMC Arachidonoyl Amide (Cayman Chemical, Ann Arbor, Mich.) to 1 μM and reaction allowed to proceed for 2 hours at room temperature. Release of fluorescence was monitored in a CytoFluor Multiplate Reader. Cells expressing the highest amount of FAAH activity were selected for study with FAAH inhibitors.
as §2, §3

In experiment [3] the target is T2, rat FAAH (Fatty Acid Amide Hydrolase) (Rattus norvegicus, UniProt P97612).
T2 sequence (P97612 1-579): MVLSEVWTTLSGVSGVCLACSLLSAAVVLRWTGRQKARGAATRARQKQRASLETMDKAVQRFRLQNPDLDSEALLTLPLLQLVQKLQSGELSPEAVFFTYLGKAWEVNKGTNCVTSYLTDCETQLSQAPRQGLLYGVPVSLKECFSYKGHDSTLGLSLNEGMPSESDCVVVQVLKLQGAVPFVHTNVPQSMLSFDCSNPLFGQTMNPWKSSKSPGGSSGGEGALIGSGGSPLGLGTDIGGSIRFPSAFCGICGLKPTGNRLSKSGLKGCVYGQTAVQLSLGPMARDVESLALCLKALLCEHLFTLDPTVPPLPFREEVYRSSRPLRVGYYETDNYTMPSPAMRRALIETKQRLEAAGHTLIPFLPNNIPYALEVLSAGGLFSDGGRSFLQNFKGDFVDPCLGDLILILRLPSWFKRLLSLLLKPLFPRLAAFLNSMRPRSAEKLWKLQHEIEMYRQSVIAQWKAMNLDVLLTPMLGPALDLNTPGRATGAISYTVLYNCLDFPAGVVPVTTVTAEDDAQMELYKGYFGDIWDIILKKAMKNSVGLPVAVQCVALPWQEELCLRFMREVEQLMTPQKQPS
Briefly: FAAH whole cell assay, CHO cells expressing rat FAAH. The class given is cell-based.
From the text: as §1, §4, §2, §3

The structures appear in SMILES notation. Counter-ions that a name gives are not always drawn.

One may read the IC50 as the point on the concentration scale where inhibition reaches its midpoint. Higher therefore signals lower potency.

As to `C[S+]([O-])c1ccc(-c2nc(-c3ccc(F)cc3)oc2Sc2ccc(Cl)cn2)cn1` (racemic) [Ex 108, (R)-5-Chloro-2-({2-(4-fluorophenyl)-4-[6-(methylsulfinyl)pyridin-3-yl]-1,3-oxazol-5-yl}sulfanyl)pyridine and (S)-5-Chloro-2-({2-(4-fluorophenyl)-4-[6-(methylsulfinyl)pyridin-3-yl]-1,3-oxazol-5-yl}sulfanyl)pyridine], the IC50 in experiment [1] came out at 0.005 µM; in experiment [2] it was 0.02 µM; in experiment [3], 0.017 µM.
`CC(C)(O)c1cnc(-c2nc(-c3ccc(F)cc3)oc2Sc2ccc(Cl)cn2)cn1` [Ex 3, 2-{5-[5-[(5-Chloropyridin-2-yl)thio]-2-(4-fluorophenyl)-1,3-oxazol-4-yl]pyrazin-2-yl}propan-2-ol]: the IC50 in experiment [1] is 0.023 µM; in experiment [2], 0.071 µM; in experiment [3] it was 0.044 µM.
In the same order, the values of `CC(C)(O)c1ccc(-c2nc(-c3ccc(F)cc3)oc2Sc2ccc(Cl)cn2)cn1` [Ex 12, 2-{5-[5-[(5-Chloropyridin-2-yl)thio]-2-(4-fluorophenyl)-1,3-oxazol-4-yl]pyridin-2-yl}propan-2-ol] are 0.019 µM, 0.025 µM and 0.013 µM.
The corresponding values for `CC(C)(O)c1ccc(-c2nc(-c3ccc(F)cc3)oc2Sc2ccc(F)cn2)cn1` [Ex 19] are 0.038 µM, 0.078 µM and 0.018 µM.
In the same order, the values of `CC(C)(O)c1ccc(-c2nc(-c3ccc(F)cc3)oc2Sc2ncc(Cl)cn2)cn1` [Ex 20] are 0.043 µM, 0.059 µM and 0.029 µM.
`CC(C)(O)c1ccc(-c2nc(-c3ccc(F)c(F)c3)oc2Sc2ccc(Cl)cn2)cn1` [Ex 35]: the results for the IC50 in experiment [1], in experiment [2] and in experiment [3] were 0.027 µM, 0.037 µM and 0.021 µM, respectively.
The corresponding values for `Cc1cc(F)ccc1-c1nc(-c2ccc(C(C)(C)O)nc2)c(Sc2ccc(Cl)cn2)o1` [Ex 37] are 0.013 µM, 0.04 µM and 0.015 µM.
Take `CC(C)(O)c1ccc(-c2nc(-c3ccc(F)cc3)oc2Sc2ccc(Cl)cc2)nc1` [Ex 46]: the values for the IC50 in experiment [1], in experiment [2] and in experiment [3] were 0.017 µM, 0.039 µM and 0.01 µM, respectively.
For `Fc1ccc(-c2nc(-c3ccc(-c4ncon4)cc3)c(Sc3ccc(Cl)cc3)o2)cc1` [Ex 48, 3-{4-[5-[(4-Chlorophenyl)thio]-2-(4-fluorophenyl)-1,3-oxazol-4-yl]phenyl}-1,2,4-oxadiazole], the IC50 in experiment [1] turned out to be 0.009 µM; in experiment [2], 0.077 µM; in experiment [3], 0.008 µM.
For `CC(C)(O)c1ccc(-c2nc(-c3ccccn3)oc2Sc2ccc(Cl)cn2)cn1` [Ex 51, 2-(5-{5-[(5-chloropyridin-2-yl)thio]-2-pyridin-2-yl-1,3-oxazol-4-yl}pyridin-2-yl)propan-2-ol, trifluoroacetic acid salt], the results for the IC50 in experiment [1], in experiment [2] and in experiment [3] were 0.026 µM, 0.148 µM and 0.107 µM, respectively.
Regarding `CS(=O)(=O)c1ccc(-c2nc(-c3ccccn3)oc2Sc2ccc(Cl)cc2)cc1` [Ex 56, 2-{5-[(4-chlorophenyl)thio]-4-[4-(methylsulfonyl)phenyl]-1,3-oxazol-2-yl}pyridine], the IC50 stood at 0.015 µM in experiment [1], 0.114 µM in experiment [2] and 0.016 µM in experiment [3].
With `CC(C)(O)c1ccc(-c2nc(-c3cc(F)c(F)cc3F)oc2Sc2ccc(Cl)cn2)cn1` [Ex 58], the half-maximal inhibitory concentration (IC50) in experiment [1] was determined as 0.037 µM; in experiment [2], 0.112 µM; in experiment [3] it was 0.074 µM.
In the same order, the values of `Cc1ccc(-c2nc(-c3ccc(C(C)(C)O)nc3)c(Sc3ccc(Cl)cn3)o2)cc1` [Ex 59] are 0.02 µM, 0.067 µM and 0.04 µM.
The corresponding values for `CC(C)(O)c1ccc(-c2nc(-c3ccccc3)oc2Sc2ncc(Cl)cn2)cn1` [Ex 62] are 0.023 µM, 0.041 µM and 0.029 µM.
Consider `CCOC(=O)c1cc(-c2nc(-c3ccc(F)cc3)oc2Sc2ccc(Cl)cn2)on1` [Ex 97, Ethyl 5-{5-[(5-chloropyridin-2-yl)sulfanyl]-2-(4-fluorophenyl)-1,3-oxazol-4-yl}isoxazole-3-carboxylate], for which the IC50 in experiment [1] was 0.02 µM; in experiment [3] it was 0.01 µM.
